Test results: ChEMBL document CHEMBL1146635 (Bioorg Med Chem Lett, 2003)

Key:
[1] = Plasma clearance in human liver microsomes; format: ADME, Microsome
Cytochrome P450 3A4 = Cytochrome P450 3A4 (Homo sapiens, UniProt P08684); test: In vitro inhibition of Cytochrome P450 3A4; format: ADME
[2] = test system: Human immunodeficiency virus 1; test: Viral spread inhibitory concentration against HIV-1 strain K-60C in MT-4 human T-lymphoid cells; format: functional; settings: Human immunodeficiency virus 1, T-lymphoid; read-out: CIC95
[3] = test system: Human immunodeficiency virus 1; test: Viral spread inhibitory concentration against HIV-1 strain NL4-3 in MT-4 human T-lymphoid cells; format: functional; settings: Human immunodeficiency virus 1, T-lymphoid; read-out: CIC95
[4] = test system: Human immunodeficiency virus 1; test: Viral spread inhibitory concentration against HIV-1 strain Q-60C in MT-4 human T-lymphoid cells; format: functional; settings: Human immunodeficiency virus 1, T-lymphoid; read-out: CIC95
MT4 = test: Viral spread inhibitory concentration against HIV-1 strain V-18C in MT-4 human T-lymphoid cells; format: functional; settings: read-out: CIC95
[5] = target: T1, Human immunodeficiency virus type 1 protease (Human immunodeficiency virus 1, UniProt Q72874); test: In vitro inhibition of HIV-1 protease (NL4-3 strain).
[6] = Cmax value determined in dog at a dose of 10 mg/kg by oral administration; format: ADME, organism-based, Canis lupus familiaris; parameters: dose 10 mg/kg, route oral; settings: in vivo
[7] = Area under curve determined in dog at a dose of 10 mg/kg by oral administration; format: ADME, organism-based, Canis lupus familiaris; parameters: dose 10 mg/kg, route oral; settings: in vivo
[8] = Area under curve determined in dog at a dose of 10 mg/kg by oral administration along with […] (10 mg/kg); settings: in vivo
Cytochrome P450 2D6 = Cytochrome P450 2D6 (Homo sapiens, UniProt P10635); test: In vitro inhibition of Cytochrome P450 2D6; format: ADME
[9] = target: T1, Human immunodeficiency virus type 1 protease; test: Inhibitory activity against HIV-1 protease (K-60C strain)
[10] = target: T1, Human immunodeficiency virus type 1 protease; test: Inhibitory activity against HIV-1 protease (V-18C strain)
[11] = Cmax value determined in dog at a dose of 5 mg/kg by oral administration; format: ADME, organism-based, Canis lupus familiaris; parameters: dose 5 mg/kg, route oral; settings: in vivo
[12] = target: T1, Human immunodeficiency virus type 1 protease; test: Inhibitory activity against HIV-1 protease (Q-60C strain)
Canis familiaris = test: Cmax value determined in dog at a dose of 10 mg/kg by oral administration along with indinavir (10 mg/kg); settings: in vivo
[13] = Cmax value determined in dog at a dose of […] by oral administration along with […] (10 mg/kg); format: ADME, organism-based, Canis lupus familiaris; parameters: route oral; settings: in vivo

Sequence of Cytochrome P450 3A4 (P08684 whole entry): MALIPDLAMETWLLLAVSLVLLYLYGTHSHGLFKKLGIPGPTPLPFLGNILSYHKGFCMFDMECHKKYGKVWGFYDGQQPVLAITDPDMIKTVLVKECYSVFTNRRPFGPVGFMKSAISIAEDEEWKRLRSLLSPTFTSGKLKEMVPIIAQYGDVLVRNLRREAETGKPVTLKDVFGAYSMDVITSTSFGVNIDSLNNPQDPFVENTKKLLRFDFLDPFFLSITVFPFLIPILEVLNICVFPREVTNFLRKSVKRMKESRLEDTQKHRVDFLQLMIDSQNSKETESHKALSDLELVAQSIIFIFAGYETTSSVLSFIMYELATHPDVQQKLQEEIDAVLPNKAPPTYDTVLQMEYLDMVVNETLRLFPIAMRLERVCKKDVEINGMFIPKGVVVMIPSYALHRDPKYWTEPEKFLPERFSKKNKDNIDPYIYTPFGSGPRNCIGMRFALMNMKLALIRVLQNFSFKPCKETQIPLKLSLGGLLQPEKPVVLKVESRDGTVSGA
Sequence of Cytochrome P450 2D6 (P10635 whole entry): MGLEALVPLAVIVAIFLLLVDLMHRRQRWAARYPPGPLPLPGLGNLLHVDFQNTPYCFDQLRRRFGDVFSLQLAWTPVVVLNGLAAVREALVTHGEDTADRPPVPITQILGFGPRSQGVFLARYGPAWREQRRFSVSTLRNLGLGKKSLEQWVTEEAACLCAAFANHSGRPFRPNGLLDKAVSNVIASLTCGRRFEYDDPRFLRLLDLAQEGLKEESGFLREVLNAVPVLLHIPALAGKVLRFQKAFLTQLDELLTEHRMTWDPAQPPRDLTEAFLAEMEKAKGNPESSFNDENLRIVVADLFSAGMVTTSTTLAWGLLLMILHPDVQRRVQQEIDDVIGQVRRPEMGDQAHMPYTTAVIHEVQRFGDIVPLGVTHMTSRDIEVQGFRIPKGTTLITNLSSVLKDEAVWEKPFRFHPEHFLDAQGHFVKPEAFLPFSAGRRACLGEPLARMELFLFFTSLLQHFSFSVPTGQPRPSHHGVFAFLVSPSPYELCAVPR

| Compound | IC95 [2] [nM] | IC95 [3] [nM] | IC95 [4] [nM] | IC95 (MT4) [nM] | IC50 [5] [nM] | also measured |
| --- | --- | --- | --- | --- | --- | --- |
| O=C(N[C@H]1c2ccccc2OC[C@H]1O)[C@H](Cc1cccnc1)C[C@H](O)CN1CCN(Cc2ccn(-c3ccc(Cl)cc3)c2)C[C@H]1C(=O)NCC(F)(F)F | 15 | ≤ 8 | ≤ 8 | ≤ 8 | 0.03 | CLint scaled [1]: 229 mL/min/kg; IC50 (Cytochrome P450 3A4): 50 nM |
| O=C(N[C@H]1c2ccccc2OC[C@H]1O)[C@H](Cc1cccnc1)C[C@H](O)CN1CCN(Cc2ccn(-c3ccc(F)cc3)c2)C[C@H]1C(=O)NCC(F)(F)F | 15 | 15 | 15 |  | 0.05 |  |
| O=C(N[C@H]1c2ccccc2OC[C@H]1O)[C@H](Cc1cccnc1)C[C@H](O)CN1CCN(Cc2ccn(-c3cc(Cl)c(Cl)c(Cl)c3)c2)C[C@H]1C(=O)NCC(F)(F)F | 31 | ≤ 8 | ≤ 8 | 15 | 0.02 |  |
| O=C(N[C@H]1c2ccccc2OC[C@H]1O)[C@H](Cc1cccnc1)C[C@H](O)CN1CCN(Cc2ccn(-c3cccc(C(F)(F)F)c3)c2)C[C@H]1C(=O)NCC(F)(F)F | 31 | 15 | ≤ 8 |  | 0.05 |  |
| O=C(N[C@H]1c2ccccc2OC[C@H]1O)[C@H](Cc1cccnc1)C[C@H](O)CN1CCN(Cc2ccn(-c3ccccc3F)c2)C[C@H]1C(=O)NCC(F)(F)F | 62 | 15 | 31 |  | 0.16 |  |
| O=C(N[C@H]1c2ccccc2OC[C@H]1O)[C@H](Cc1cccnc1)C[C@H](O)CN1CCN(Cc2ccn(-c3cccc(Cl)c3)c2)C[C@H]1C(=O)NCC(F)(F)F | ≤ 8 | ≤ 8 | ≤ 8 | ≤ 8 | 0.05 | CLint scaled [1]: 307 mL/min/kg; IC50 (Cytochrome P450 3A4): 80 nM |
| N#Cc1cccc(-n2ccc(CN3CCN(C[C@@H](O)C[C@@H](Cc4cccnc4)C(=O)N[C@H]4c5ccccc5OC[C@H]4O)[C@H](C(=O)NCC(F)(F)F)C3)c2)c1 | 62 | 62 | ≤ 31 |  | 0.15 |  |
| O=C(N[C@H]1c2ccccc2OC[C@H]1O)[C@H](Cc1cccnc1)C[C@H](O)CN1CCN(Cc2ccn(-c3ccc(F)c(F)c3F)c2)C[C@H]1C(=O)NCC(F)(F)F | 15 | ≤ 8 | ≤ 8 | ≤ 8 | 0.05 | CLint scaled [1]: 218 mL/min/kg; Cmax [6]: 1.9 µM; AUC [7]: 4.4 µM·h; IC50 (Cytochrome P450 3A4): 50 nM; AUC [8]: 26.6 µM·h |
| N#Cc1ccc(-n2ccc(CN3CCN(C[C@@H](O)C[C@@H](Cc4cccnc4)C(=O)N[C@H]4c5ccccc5OC[C@H]4O)[C@H](C(=O)NCC(F)(F)F)C3)c2)cc1 | 125 | 62 | 31 |  | 0.1 |  |
| O=C(N[C@H]1c2ccccc2OC[C@H]1O)[C@H](Cc1cccnc1)C[C@H](O)CN1CCN(Cc2ccn(-c3ccc(C(F)(F)F)cc3)c2)C[C@H]1C(=O)NCC(F)(F)F | 15 | 15 | ≤ 8 |  | 0.04 |  |
| Cc1ccccc1-n1ccc(CN2CCN(C[C@@H](O)C[C@@H](Cc3cccnc3)C(=O)N[C@H]3c4ccccc4OC[C@H]3O)[C@H](C(=O)NCC(F)(F)F)C2)c1 | 125 | ≤ 8 | 31 | 31 | 0.16 |  |
| O=C(N[C@H]1c2ccccc2OC[C@H]1O)[C@H](Cc1cccnc1)C[C@H](O)CN1CCN(Cc2ccn(-c3ccccc3Cl)c2)C[C@H]1C(=O)NCC(F)(F)F | 62 | ≤ 8 | 31 | 31 | 0.18 |  |
| O=C(N[C@H]1c2ccccc2OC[C@H]1O)[C@H](Cc1cccnc1)C[C@H](O)CN1CCN(Cc2ccn(-c3ccc(Cl)c(Cl)c3)c2)C[C@H]1C(=O)NCC(F)(F)F | 31 | 15 | ≤ 8 | 15 | 0.02 |  |
| O=C(N[C@H]1c2ccccc2OC[C@H]1O)[C@H](Cc1cccnc1)C[C@H](O)CN1CCN(Cc2ccn(-c3cccc(F)c3)c2)C[C@H]1C(=O)NCC(F)(F)F | 31 | 15 | 15 |  | 0.05 |  |
| Cc1ccc(-n2ccc(CN3CCN(C[C@@H](O)C[C@@H](Cc4cccnc4)C(=O)N[C@H]4c5ccccc5OC[C@H]4O)[C@H](C(=O)NCC(F)(F)F)C3)c2)cc1 | 15 | 15 | ≤ 8 | 15 | 0.06 |  |
| O=C(N[C@H]1c2ccccc2OC[C@H]1O)[C@H](Cc1cccnc1)C[C@H](O)CN1CCN(Cc2ccn(-c3ccccc3)c2)C[C@H]1C(=O)NCC(F)(F)F | 31 | 15 | ≤ 8 | ≤ 8 | 0.11 | CLint scaled [1]: 332 mL/min/kg; Cmax [6]: 5.3 µM; AUC [7]: 7 µM·h; IC50 (Cytochrome P450 3A4): 400 nM; IC50 (Cytochrome P450 2D6): 12000 nM; IC50 [9]: 2.7 nM; IC50 [10]: 2.49 nM |
| Cc1cccc(-n2ccc(CN3CCN(C[C@@H](O)C[C@@H](Cc4cccnc4)C(=O)N[C@H]4c5ccccc5OC[C@H]4O)[C@H](C(=O)NCC(F)(F)F)C3)c2)c1 | 62 | ≤ 8 | ≤ 8 | ≤ 8 | 0.1 |  |
| N#Cc1ccccc1-n1ccc(CN2CCN(C[C@@H](O)C[C@@H](Cc3cccnc3)C(=O)N[C@H]3c4ccccc4OC[C@H]3O)[C@H](C(=O)NCC(F)(F)F)C2)c1 | 250 | 46 | 62 |  | 0.46 |  |
| O=C(N[C@H]1c2ccccc2OC[C@H]1O)[C@H](Cc1cccnc1)C[C@H](O)CN1CCN(Cc2ccn(-c3ccccc3C(F)(F)F)c2)C[C@H]1C(=O)NCC(F)(F)F | 500 | 38 | 500 |  | 1.32 |  |
| O=C(N[C@H]1c2ccccc2OC[C@H]1O)[C@H](Cc1cccnc1)C[C@H](O)CN1CCN(Cc2ccc(-c3ccccc3)o2)C[C@H]1C(=O)NCC(F)(F)F | ≤ 8 | ≤ 8 | ≤ 8 | ≤ 8 |  | CLint scaled [1]: 238 mL/min/kg; Cmax [11]: 0.1 µM; IC50 [9]: 0.06 nM; IC50 [12]: 0.07 nM; IC50 [10]: 0.15 nM; Cmax (Canis familiaris): 6.1 µM |
| CC(C)(C)NC(=O)[C@@H]1CN(Cc2cccnc2)CCN1C[C@@H](O)C[C@@H](Cc1ccccc1)C(=O)N[C@H]1c2ccccc2C[C@H]1O.O | > 1000 | 50 | > 1000 | > 1000 |  | Cmax [13]: 11.4 µM; AUC [8]: 12.5 µM·h |
